Measured values published in patent US20240150365A1 (Hotspot Therapeutics, Inc., priority 2022, published 2024).

Experiments:
[1] = target: T1, MALT1 (Homo sapiens, UniProt Q9UDY8); assay: MALT-1 Fluorogenic Peptide Cleavage Assay (MALT1 inhibition assay); type: biochemical; conditions: Avi-tagged FL MALT-1, Ac-LRSR-AMC peptide substrate, 30 min pre-incubation, 90 min reaction
T1 construct: Avi-tagged FL MALT-1 (Pharmaron, stored at −70° C.); Avi tag
T1 sequence (Q9UDY8 1-824): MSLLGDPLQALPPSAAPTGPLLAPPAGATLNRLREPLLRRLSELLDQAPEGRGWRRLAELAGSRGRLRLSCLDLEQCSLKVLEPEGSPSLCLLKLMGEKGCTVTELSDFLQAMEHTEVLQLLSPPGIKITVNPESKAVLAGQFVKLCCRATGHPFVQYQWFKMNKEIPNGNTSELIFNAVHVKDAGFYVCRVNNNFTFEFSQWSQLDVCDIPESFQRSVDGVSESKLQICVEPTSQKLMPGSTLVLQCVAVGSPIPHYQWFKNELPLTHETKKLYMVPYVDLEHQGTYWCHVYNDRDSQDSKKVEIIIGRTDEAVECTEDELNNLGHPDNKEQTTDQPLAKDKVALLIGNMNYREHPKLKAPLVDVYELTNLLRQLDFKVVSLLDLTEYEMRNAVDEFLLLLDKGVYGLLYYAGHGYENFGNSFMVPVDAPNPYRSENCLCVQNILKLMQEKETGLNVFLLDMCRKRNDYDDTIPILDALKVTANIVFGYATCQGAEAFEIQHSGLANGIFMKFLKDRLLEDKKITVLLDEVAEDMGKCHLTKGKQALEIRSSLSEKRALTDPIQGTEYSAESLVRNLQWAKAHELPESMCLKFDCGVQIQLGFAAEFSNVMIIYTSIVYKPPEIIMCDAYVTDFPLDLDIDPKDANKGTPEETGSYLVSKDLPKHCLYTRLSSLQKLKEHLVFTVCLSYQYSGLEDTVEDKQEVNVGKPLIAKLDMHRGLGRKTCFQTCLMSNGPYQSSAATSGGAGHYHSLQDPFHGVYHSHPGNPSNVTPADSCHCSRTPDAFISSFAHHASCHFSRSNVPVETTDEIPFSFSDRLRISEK
Method in brief: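 Avi-tagged full-length MALT1 pre-incubated 30 min with compound (2% DMSO final), then cleavage of Ac-LRSR-AMC followed over 90 min at room temperature. AMC fluorescence read at 342/441 nm; % inhibition fitted to sigmoidal curves for IC50.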

[2] = system: NF-kB; assay: NF-kB reporter assay in Jurkat cells stimulated with aCD3/aCD28/PMA; type: cell-based; conditions: Homo sapiens, Jurkat, Jurkat cells, 1 hr compound incubation, aCD3/aCD28/PMA stimulation 4 hr, One-Glo readout; read-out: NF-kB Reporter Assay IC50
Method in brief: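 Jurkat cells (25,000/well, serum-free RPMI 1640) preincubated 1 hr at 37° C with serially diluted compound, then stimulated with aCD3/aCD28/PMA (final 5 μg/mL, 5 μg/mL, 0.03 μg/mL) for 4 hr. Reporter luminescence read with One-Glo; IC50 derived.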

IC50 [1] [nM] | IC50 [2] [nM] | Compound
> 2500 | > 2500 | Cn1ncc2cccc(NS(=O)(=O)c3ccc(-c4cc5cnccc5[nH]4)nc3)c21 [Example I-77, N-(1-Methyl-1H-Indazol-7-yl)-6-(1H-Pyrrolo[3,2-C]Pyridin-2-yl)Pyridine-3-Sulfonamide]
> 2500 | 1000 to 2500 | Cn1ncc2cccc(NS(=O)(=O)c3ccc(-c4cc[nH]c4)nc3)c21 [Example I-79, N-(1-Methyl-1H-Indazol-7-yl)-6-(1H-Pyrrol-3-yl)Pyridine-3-Sulfonamide]
> 2500 | 1000 to 2500 | Cn1ncc2cccc(NS(=O)(=O)c3ccc(-c4ccc[nH]4)nc3)c21 [Example I-80, N-(1-Methyl-1H-Indazol-7-yl)-6-(1H-Pyrrol-2-yl)Pyridine-3-Sulfonamide]
> 2500 | 400 to 1000 | Cn1ncc2cccc(NS(=O)(=O)c3ccc(-c4ccn[nH]4)nc3)c21 [Example I-81, N-(1-Methyl-1H-Indazol-7-yl)-6-(1H-Pyrazol-5-yl)Pyridine-3-Sulfonamide]
> 2500 | 400 to 1000 | Cn1nccc1-c1ccc(S(=O)(=O)Nc2cccc3cnn(C)c23)cn1 [Example I-82, N-(1-Methyl-1H-Indazol-7-yl)-6-(1-Methyl-1H-Pyrazol-5-yl)Pyridine-3-Sulfonamide]
> 2500 | < 400 | Cc1cc(-c2ccc(S(=O)(=O)Nc3cccc4cnn(C)c34)cn2)[nH]n1 [Example I-83, N-(1-Methyl-1H-Indazol-7-yl)-6-(3-Methyl-1H-Pyrazol-5-yl)Pyridine-3-Sulfonamide]
400 to 1000 | < 400 | Cn1ncc2cccc(NS(=O)(=O)c3ccc(-c4cc(C(F)(F)F)n[nH]4)nc3)c21 [Example I-84, N-(1-Methyl-1H-Indazol-7-yl)-6-(3-(Trifluoromethyl)-1H-Pyrazol-5-yl)Pyridine-3-Sulfonamide]
> 2500 | < 400 | Cn1ncc2cccc(NS(=O)(=O)c3ccc(-c4c[nH]nc4C(F)(F)F)nc3)c21 [Example I-85, N-(1-Methyl-1H-Indazol-7-yl)-6-(3-(Trifluoromethyl)-1H-Pyrazol-4-yl)Pyridine-3-Sulfonamide]
> 2500 | < 400 | Cn1ncc2cccc(NS(=O)(=O)c3ccc(-c4cnn(C(F)F)c4)nc3)c21 [Example I-86, 6-(1-(Difluoromethyl)-1H-Pyrazol-4-yl)-N-(1-Methyl-1H-Indazol-7-yl)Pyridine-3-Sulfonamide]
> 2500 | < 400 | Cc1nn(C)cc1-c1ccc(S(=O)(=O)Nc2cccc3cnn(C)c23)cn1 [Example I-87, 6-(1,3-Dimethyl-1H-Pyrazol-4-yl)-N-(1-Methyl-1H-Indazol-7-yl)Pyridine-3-Sulfonamide]
> 2500 | < 400 | Cc1c(-c2ccc(S(=O)(=O)Nc3cccc4cnn(C)c34)cn2)cnn1C [Example I-88, 6-(1,5-Dimethyl-1H-Pyrazol-4-yl)-N-(1-Methyl-1H-Indazol-7-yl)Pyridine-3-Sulfonamide]
> 2500 | < 400 | Cc1nn(C)c(C)c1-c1ccc(S(=O)(=O)Nc2cccc3cnn(C)c23)cn1 [Example I-89, N-(1-Methyl-1H-Indazol-7-yl)-6-(1,3,5-Trimethyl-1H-Pyrazol-4-yl)Pyridine-3-Sulfonamide]
> 2500 | 400 to 1000 | Cn1cncc1-c1ccc(S(=O)(=O)Nc2cccc3cnn(C)c23)cn1 [Example I-90, 6-(1-Methyl-1H-Imidazol-5-yl)-N-(1-Methyl-1H-Indazol-7-yl)Pyridine-3-Sulfonamide]
> 2500 | < 400 | Cc1cc(-c2ccc(S(=O)(=O)Nc3cccc4cnn(C)c34)cn2)on1 [Example I-98, N-(1-Methyl-1H-Indazol-7-yl)-6-(3-Methylisoxazol-5-yl)Pyridine-3-Sulfonamide]
< 400 | < 400 | Cn1ncc2cccc(NS(=O)(=O)c3ccc(-c4cncs4)nc3)c21 [Example I-101, N-(1-Methyl-1H-Indazol-7-yl)-6-(Thiazol-5-yl)Pyridine-3-Sulfonamide]
